Legend:
[1] = Stability of compounds in human liver microsomes; type: in vitro ADME; conditions: for CLint scaled at 0.5 μM / half-life at 0.5 μM: both sexes, pH 7.4; for CLint scaled at 0.5 μM: liver microsomes, calculated from HLM half-life, read-out: HLM Scaled Intrinsic Clearance; for CLint scaled at 0.5 μM / Predicted Max. Bioavailability (% F) / HLM Predicted Systemic Clearance: human; for half-life at 0.5 μM: 0.5 μM compound, 0.5 mg/mL human liver microsomes, 37° C., maxed at 420 minutes, read-out: HLM Elimination half-life (t1/2, min); for Predicted Max. Bioavailability (% F): predicted from HLM data; for HLM Predicted Systemic Clearance: scaled from HLM half-life (Obach method)
Method in brief: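 Compound at 0.5 μM incubated at 37 °C with pooled mixed-gender human liver microsomes (0.5 mg/mL protein) and an NADPH-generating system in pH 7.4 phosphate buffer, sampled 0–60 min. Parent depletion tracked by LC-MS/MS; t1/2 derived from the slope by non-linear regression, with predicted extraction ratio and maximum bioavailability also calculated.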

[2] = biological target: human VMAT2 (Homo sapiens (Human), UniProt Q05940); assay: VMAT2 radioligand binding, 3H-dihydrotetrabenazine competition on human platelet homogenate; conditions: 10 nM 3H-dihydrotetrabenazine, human platelet homogenate, 25° C., 90 minutes; read-out: VMAT2 Ki
Sequence of human VMAT2 (Q05940 whole entry): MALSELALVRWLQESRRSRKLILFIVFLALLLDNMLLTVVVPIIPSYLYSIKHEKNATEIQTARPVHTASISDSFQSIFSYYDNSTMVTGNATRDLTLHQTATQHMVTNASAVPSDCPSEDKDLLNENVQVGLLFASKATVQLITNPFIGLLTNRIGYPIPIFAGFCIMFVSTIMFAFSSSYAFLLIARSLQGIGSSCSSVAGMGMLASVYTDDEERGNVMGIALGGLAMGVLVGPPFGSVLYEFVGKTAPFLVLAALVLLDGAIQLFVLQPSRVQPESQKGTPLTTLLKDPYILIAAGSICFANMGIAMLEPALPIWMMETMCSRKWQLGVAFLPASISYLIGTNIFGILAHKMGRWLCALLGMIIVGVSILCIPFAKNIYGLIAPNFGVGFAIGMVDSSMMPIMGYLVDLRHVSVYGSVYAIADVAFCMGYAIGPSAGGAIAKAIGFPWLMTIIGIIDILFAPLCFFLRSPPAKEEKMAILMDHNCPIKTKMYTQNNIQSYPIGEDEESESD
Method in brief: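 Ki from scintillation counting of filter-bound ³H-dihydrotetrabenazine (10 nM) after 90 min, 25 °C incubation with twelve concentrations of compound. Membranes: human platelet homogenate, 30 μg protein per well; buffer DPBS, 1 mM EDTA, pH 7.4.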

Compound	CLint scaled at 0.5 μM [1] [mL/min/kg]	half-life at 0.5 μM [1] [min]	Predicted Max. Bioavailability (% F) [1] [% F]	HLM Predicted Systemic Clearance [1] [mL/min/kg]	Ki [2] [µM]
COc1cc2c(cc1OCc1ccon1)CCN1C[C@@H](CC(C)(C)C)[C@H](O)C[C@H]21 [Compound 4-69, (2R,3R,11bR)-3-(2,2-dimethylpropyl)-10-methoxy-9-(1,2-oxazol-3-ylmethoxy)-1H,2H,3H,4H,6H,7H,11bH-pyrido[2,1-a]isoquinolin-2-ol]	15.5	80	56	8.74	0.032
COc1cc2c(cc1OCCOCC#N)CCN1C[C@@H](CC(C)(C)C)[C@H](O)C[C@H]21 [Compound 4-70, 2-(2-{[(2R,3R,11bR)-3-(2,2-dimethylpropyl)-2-hydroxy-10-methoxy-1H,2H,3H,4H,6H,7H,11bH-pyrido[2,1-a]isoquinolin-9-yl]oxy}ethoxy)acetonitrile]	11.4	110	64	7.25	0.036
COc1cc2c(cc1OCCN1CCC(F)(F)C1)CCN1C[C@@H](CC(C)(C)C)[C@H](O)C[C@H]21 [Compound 4-71, (2R,3R,11bR)-9-[2-(3,3-difluoropyrrolidin-1-yl)ethoxy]-3-(2,2-dimethylpropyl)-10-methoxy-1H,2H,3H,4H,6H,7H,11bH-pyrido[2,1-a]isoquinolin-2-ol]	38.4	33	34	13.15	0.037
COc1cc2c(cc1OCC1(F)COCCOC1)CCN1C[C@@H](CC(C)(C)C)[C@H](O)C[C@H]21 [Compound 4-72, (2R,3R,11bR)-3-(2,2-dimethylpropyl)-9-[(6-fluoro-1,4-dioxepan-6-yl)methoxy]-10-methoxy-1H,2H,3H,4H,6H,7H,11bH-pyrido[2,1-a]isoquinolin-2-ol]	15.6	80	56	8.77	0.051
COc1cc2c(cc1OCC1CCN(C#N)CC1)CCN1C[C@@H](CC(C)(C)C)[C@H](O)C[C@H]21 [Compound 4-73]	10.5	119	66	6.88	0.051
COc1cc2c(cc1OCCc1ccc(C(F)(F)F)cc1)CCN1C[C@@H](CC(C)(C)C)[C@H](O)C[C@H]21 [Compound 4-74, (2R,3R,11bR)-3-(2,2-dimethylpropyl)-10-methoxy-9-{2-[4-(trifluoromethyl)phenyl]ethoxy}-1H,2H,3H,4H,6H,7H,11bH-pyrido[2,1-a]isoquinolin-2-ol]	34.6	36	37	12.68	0.065
COc1cc2c(cc1OCc1cocn1)CCN1C[C@@H](CC(C)(C)C)[C@H](O)C[C@H]21 [Compound 4-75, (2R,3R,11bR)-3-(2,2-dimethylpropyl)-10-methoxy-9-(1,3-oxazol-4-ylmethoxy)-1H,2H,3H,4H,6H,7H,11bH-pyrido[2,1-a]isoquinolin-2-ol]	11.9	104	63	7.48	0.076
COc1cc2c(cc1OCC1(O)CCC(F)(F)CC1)CCN1C[C@@H](CC(C)(C)C)[C@H](O)C[C@H]21 [Compound 4-76, (2R,3R,11bR)-9-[(4,4-difluoro-1-hydroxycyclohexyl)methoxy]-3-(2,2-dimethylpropyl)-10-methoxy-1H,2H,3H,4H,6H,7H,11bH-pyrido[2,1-a]isoquinolin-2-ol]	≤ 2.97	≥ 420	≥87	≤2.59	0.082
COc1cc2c(cc1OCc1cccc(C#N)n1)CCN1C[C@@H](CC(C)(C)C)[C@H](O)C[C@H]21 [Compound 4-77, 6-({[(2R,3R,11bR)-3-(2,2-dimethylpropyl)-2-hydroxy-10-methoxy-1H,2H,3H,4H,6H,7H,11bH-pyrido[2,1-a]isoquinolin-9-yl]oxy}methyl)pyridine-2-carbonitrile]	8.01	156	71	5.72	0.085
COc1cc2c(cc1OCC1CC(O)(C(F)(F)F)C1)CCN1C[C@@H](CC(C)(C)C)[C@H](O)C[C@H]21 (stereo partly drawn) [Compound 4-78, (2R,3R,11bR)-3-(2,2-dimethylpropyl)-9-{[3-hydroxy-3-(trifluoro-methyl)cyclobutyl]methoxy}-10-methoxy-1H,2H,3H,4H,6H,7H,11bH-pyrido[2,1-a]isoquinolin-2-ol]	6.41	195	76	4.86	0.092
COc1cc2c(cc1OCC(O)COCC(F)(F)F)CCN1C[C@@H](CC(C)(C)C)[C@H](O)C[C@H]21 (some centres unmarked) [Compound 4-79]	5.88	212	77	4.54	0.099
COc1cc2c(cc1OCC1CC1)CCN1C[C@@H](CC(C)(C)C)[C@H](O)C[C@H]21 [Compound 4-88, (2R,3R,11bR)-9-(cyclopropylmethoxy)-3-(2,2-dimethylpropyl)-10-methoxy-1H,2H,3H,4H,6H,7H,11bH-pyrido[2,1-a]isoquinolin-2-ol]	28.1	44	42	11.68	0.00068
CC[C@@H]1C[C@H]1COc1cc2c(cc1OC)[C@H]1C[C@@H](O)[C@H](CC(C)(C)C)CN1CC2 [Compound 4-90, (2R,3R,11bR)-3-(2,2-dimethylpropyl)-9-{[(1R,2R)-2-ethylcyclopropyl]methoxy}-10-methoxy-1H,2H,3H,4H,6H,7H,11bH-pyrido[2,1-a]isoquinolin-2-ol]	156	8	11	17.72	0.00029
COc1cc2c(cc1OC[C@@H](C)OC)CCN1C[C@@H](CC(C)(C)C)[C@H](O)C[C@H]21 [Compound 4-91, (2R,3R,11bR)-3-(2,2-dimethylpropyl)-10-methoxy-9-[(2R)-2-methoxypropoxy]-1H,2H,3H,4H,6H,7H,11bH-pyrido[2,1-a]isoquinolin-2-ol]	19.7	63	50	9.92	0.028
COc1cc2c(cc1OC[C@H](C)OC)CCN1C[C@@H](CC(C)(C)C)[C@H](O)C[C@H]21 [Compound 4-92, (2R,3R,11bR)-3-(2,2-dimethylpropyl)-10-methoxy-9-[(2S)-2-methoxypropoxy]-1H,2H,3H,4H,6H,7H,11bH-pyrido[2,1-a]isoquinolin-2-ol]	25.5	49	44	11.2	0.051
COc1cc2c(cc1OC[C@H](C)O)CCN1C[C@@H](CC(C)(C)C)[C@H](O)C[C@H]21 [Compound 4-114, (2R,3R,11bR)-3-(2,2-dimethylpropyl)-9-[(2S)-2-hydroxypropoxy]-10-methoxy-1H,2H,3H,4H,6H,7H,11bH-pyrido[2,1-a]isoquinolin-2-ol]	≤ 2.97	≥ 420	≥87	≤2.59	0.07
COc1cc2c(cc1OCCCCC(F)(F)F)CCN1C[C@@H](CC(C)(C)C)[C@H](O)C[C@H]21 [Compound 4-115, (2R,3R,11bR)-3-(2,2-dimethylpropyl)-10-methoxy-9-[(5,5,5-trifluoropentyl)oxy]-1H,2H,3H,4H,6H,7H,11bH-pyrido[2,1-a]isoquinolin-2-ol]	9.38	133	68	6.39	0.0061
COc1cc2c(cc1OCc1cccc(C#N)c1)CCN1C[C@@H](CC(C)(C)C)[C@H](O)C[C@H]21 [Compound 4-116, 3-({[(2R,3R,11bR)-3-(2,2-dimethylpropyl)-2-hydroxy-10-methoxy-1H,2H,3H,4H,6H,7H,11bH-pyrido[2,1-a]isoquinolin-9-yl]oxy}methyl)benzonitrile]	21.8	57	48	10.44	0.056
COc1cc2c(cc1OCCc1ccc(F)cc1)CCN1C[C@@H](CC(C)(C)C)[C@H](O)C[C@H]21 [Compound 4-117, (2R,3R,11bR)-3-(2,2-dimethylpropyl)-9-[2-(4-fluorophenyl)ethoxy]-10-methoxy-1H,2H,3H,4H,6H,7H,11bH-pyrido[2,1-a]isoquinolin-2-ol]	112	11	15	16.98	0.0022

Source: patent US11718618B2, “Substituted pyrido[2,1-a]isoquinolines as VMAT2 inhibitors” (priority 2021, dated 2023)
